Laboratory results taken from patent US20240307426A1, “USE OF SGLT-2 INHIBITORS FOR THE PREVENTION AND/OR TREATMENT OF RENAL DISEASES IN NON-HUMAN MAMMALS” (BOEHRINGER INGELHEIM VETMEDICA GMBH, priority 2021, published 2024).

Columns and labels:
[1] = system: client owned dogs with CKD; assay: Exploratory clinical field trial in client owned dogs with CKD (Example 4); format: in vivo, dog; settings: 0.05 mg/kg bodyweight orally once daily
Protocol: (§1) Client owned patients diagnosed with CKD diagnosed via physical examination and biomarker levels are orally treated once daily with velagliflozin 0.05 mg/kg bodyweight. During the study period the body weight, body condition score, biomarker levels (creatinine and SDMA), proteinuria, presence of concomitant conditions and need for further medication are examined on regular basis during the visits at the site by the investigator. The parameters examined are creatinine and SDMA levels, proteinuria, blood pressure and hydration status. Additionally, variables as the delayed onset of renal failure, survival time of the dog patients, IRIS stage progression and renal related mortality and/or morbidity are observed.

[2] = system: client owned dogs with CKD (IRIS stage 3); assay: Exploratory clinical field study - dogs (Example 2); format: in vivo, dog; settings: CKD IRIS stage 3, 0.3 mg/kg bodyweight orally once daily
Protocol: as §1, with “CKD (IRIS stage 3)” for “CKD”, “0.3” for “0.05”, “IRiS” for “IRIS”

## N#Cc1ccc([C@@H]2O[C@H](CO)[C@@H](O)[C@H](O)[C@H]2O)cc1Cc1ccc(C2CC2)cc1 [velagliflozin, Velagliflozin]
[1]
  effect on renal function: beneficial effect on renal function
  progression of the disease: delay in progression of the disease
[2]
  effect on renal function: beneficial effect on renal function
  progression of the disease: delay in progression of the disease
